In brackets after ≈: the same amount, converted by molar mass.
Assays:
Streptococcus agalactiae = test: In vitro MIC, broth microdilution (CLSI); type: cell-based; details: MHB II with 2% lysed horse blood
Description: (§1) All test articles were dissolved in DMSO. Stock solutions were prepared at 40-fold the highest concentration in the test plate. The final concentration of DMSO in the test system was 2.5%.
(§2) The medium employed for the MIC assay was Mueller Hinton II Broth (MHB II-Becton Dickinson, #212322, Lot #9044411) for most of the organisms. MHB II was supplemented with 2% lysed horse blood (Cleveland Scientific Lot #22299-1) to accommodate the growth of Streptococcus pneumoniae, Streptococcus pyogenes and Streptococcus agalactiae. The media were prepared at 102.5% the normal weight to offset the dilution created by the addition of 5 μL drug solution to each well of the microdilution panels.
(§3) The MIC assay method followed the procedure described by the Clinical and Laboratory Standards Institute (see Clinical and Laboratory Standards Institute. Methods for Dilution Antimicrobial, Susceptibility Tests for Bacteria That Grow Aerobically; Approved Standard—Eighth Edition. CLSI document M07-A8 [ISBN 1-56238-689-1]. Clinical and Laboratory, Standards Institute, 940 West Valley Road, Suite 1400, Wayne, Pa. 19087-1898 USA, 2009) and employed automated liquid handlers to conduct serial dilutions and liquid transfers. Automated liquid handlers included the Multidrop 384 (Labsystems, Helsinki, Finland), Biomek 2000 and Multimek 96 (Beckman Coulter, Fullerton Calif.).
(§4) The wells of Columns 2-12 of standard 96-well microdilution plates (Falcon 3918) were filled with 150 μL of DMSO on the Multidrop 384. The drugs (300 μL) were dispensed into Column 1 of the appropriate row in these plates. These would become the mother plates from which the test plates (daughter plates) were prepared. The Biomek 2000 completed serial transfers through Column 11 in the mother plates. The wells of Column 12 contained no drug and were the organism growth control wells in the daughter plates. The daughter plates were loaded with 185 μL of the appropriate test media (described above) using the Multidrop 384. The daughter plates were prepared on the Multimek 96 instrument which transferred 5 μL of drug solution from each well of a mother plate to each corresponding well of each daughter plate in a single step. Therefore, the test agents were maintained in solution in 100% DMSO up until the point of being added to the final test medium.
(§5) Standardized inoculum of each organism was prepared per CLSI methods (See Clinical and Laboratory Standards Institute. Performance Standards for Antimicrobial Susceptibility Testing; Nineteenth Informational Supplement. CLSI document M100-S19 [ISBN 1-56238-690-5]. Clinical and Laboratory Standards Institute, 940 West Valley Road, Suite 1400, Wayne, Pa. 19087-1898 USA, 2009.). Suspensions were prepared in MHB to equal the turbidity of a 0.5 McFarland standard. The suspensions were diluted 1:9 in broth appropriate to the organism. The inoculum for each organism was dispensed into sterile reservoirs divided by width (Beckman Coulter), and the Biomek 2000 was used to inoculate the plates. Daughter plates were placed on the Biomek 2000 work surface reversed so that inoculation took place from low to high drug concentration. The Biomek 2000 delivered 10 μL of standardized inoculum into each well. This yielded a final cell concentration in the daughter plates of approximately 5×10^5 colony-forming-units/mL. Thus, the wells of the daughter plates ultimately contained 185 μL of broth, 5 μL of drug solution, and 10 μL of bacterial inoculum. The final concentration of DMSO in the assay plate was 2.5%.
(§6) Plates were stacked 3 high, covered with a lid on the top plate, placed in plastic bags, and incubated at 35° C. for approximately 18 hours for most of the isolates. The Streptococcus plates were read after 20 hours of incubation. The microplates were viewed from the bottom using a plate viewer. […] The MIC was read and recorded as the lowest concentration of drug that inhibited visible growth of the organism.

Streptococcus pneumoniae = test: In vitro MIC, broth microdilution (CLSI); type: cell-based; details: MHB II with 2% lysed horse blood
Description: as §1, §2, §3, §4, §5, §6

Enterococcus faecium = test: In vitro MIC, broth microdilution (CLSI); type: cell-based
Description: as §1, §2, §3, §4, §5, §6

[1] = test system: Staphylococcus epidermidis; test: In vitro MIC, broth microdilution (CLSI); type: cell-based
Description: as §1, §2, §3, §4, §5, §6

Streptococcus pyogenes = test: In vitro MIC, broth microdilution (CLSI); type: cell-based; details: MHB II with 2% lysed horse blood
Description: as §1, §2, §3, §4, §5, §6

Enterococcus faecalis = test: In vitro MIC, broth microdilution (CLSI); type: cell-based
Description: as §1, §2, §3, §4, §5, §6

Staphylococcus aureus = test: In vitro MIC, broth microdilution (CLSI); type: cell-based
Description: as §1, §2, §3, §4, §5, §6

[2] = test system: methicillin resistant Staphylococcus aureus (MRSA); test: In vitro antimicrobial evaluation, modified CLSI (formerly NCCLS) method; type: cell-based; details: IC50 from percent growth versus test concentration; values only in FIG. 1
Description: The in vitro antimicrobial activity for the isolated glycosides is represented in FIG. 1. A modified version of CLSI (formerly NCCLS) method was used for the in vitro evaluation of test samples. Duplicate samples were transferred to 96-well microplates after diluting with 0.9% saline. The microbial cell suspensions were to give the desired target inocula after addition to the samples. Media and solvent controls were included in each assay. The IC50 was calculated by plotting percent growth versus test concentration.

streptococci = test: In vitro MIC, streptococci; type: cell-based, Streptococcus; details: highest concentrations considered for MIC readings
Description: as §1
as §2, with “panels. […]” for “panels.”
as §6, with “incubation.” for “incubation. The microplates were viewed from the bottom using a plate viewer.”

enterococci = test: In vitro MIC, for enterococci; type: cell-based; details: E. faecalis and E. faecium, vancomycin-susceptible and vancomycin-resistant strains
Description: as §1
as §2, with “panels. […]” for “panels.”
as §6, with “incubation.” for “incubation. The microplates were viewed from the bottom using a plate viewer.”

MRSA = details: background statement; cited from earlier work
[3] = test system: Methicillin-resistant Staphylococcus aureus; test: In vivo MRSA assay, thigh infection in a murine model; parameters: species or system Mice (CD-1); details: vancomycin treated animals
Description: The in vivo antimicrobial activity for the isolated glycosides is represented in FIGS. 2A and 2B. Mice (CD-1) were purchased from Harlan Inc. and acclimatized up to 5 days before use. Food and water were available ad libitum throughout the study. They were rendered neutropenic by two injections of cyclophosphamide (100 mg/kg) given intraperitoneally, one and four days before infection. A volume of 50 uL suspension of Methicillin-resistant Staphylococcus aureus (1.5×10^6 live organisms) was injected intramuscularly (1M) into each of the two rear thighs. Each thigh was considered as an individual data point (total of 4 data points for each treatment). These mice were randomly distributed into the control or treatment groups (n=2/group).
Treatment with the test compound (1) was initiated via the intraperitoneal route 2 hrs after thigh inoculation. Control animals were concurrently administered saline (mock treatment) or vancomycin in the same volume as those receiving compound (1). All animals were sacrificed after 48 hours by CO2 inhalation. Immediately following sacrifice, thigh tissue was collected from the animals, weighed, and homogenized in 5.0 mL of saline. Thigh muscle homogenate was then processed for microbiological assay to determine the number of MRSA cfu per gram of muscle tissue.

C[C@@H]1O[C@@H](Oc2c(-c3ccc(O)cc3)oc3cc(O)cc(O)c3c2=O)[C@H](OC(=O)/C=C\c2ccc(O)cc2)[C@H](OC(=O)/C=C\c2ccc(O)cc2)[C@H]1O [Compound 4, kaempferol 3-O-α-L-(2″,3″-di-Z-p-coumaroyl)rhamnoside]
MIC (Streptococcus agalactiae; MMX 3743, Mt. Sinai): >32 µg/mL
MIC (Streptococcus agalactiae; MMX 4093, UCLA): >32 µg/mL
MIC (Streptococcus agalactiae; MMX 4106, CHP): >32 µg/mL
MIC (Streptococcus pneumoniae; MMX 748, PRSP, CHP): >32 µg/mL
MIC (Streptococcus pneumoniae; MMX 866, PSSP, CHP): >32 µg/mL
MIC (Streptococcus pneumoniae; MMX 1195, CLSI QC, ATCC 49619): >32 µg/mL
MIC (Streptococcus pneumoniae; MMX 3130, PSSP, UCLA): >32 µg/mL
MIC (Streptococcus pneumoniae; MMX 3160, PRSP, UCLA): >32 µg/mL
MIC (Streptococcus pneumoniae; MMX 3937, PSSP, Mt. Sinai): >32 µg/mL
MIC (Streptococcus pneumoniae; MMX 3953, PRSP, Mt. Sinai): >32 µg/mL
MIC (Enterococcus faecium; MMX 0799, VSE, CHP): >8 µg/mL
MIC (Enterococcus faecium; MMX 0845, VSE, UCLA): 4 µg/mL (≈ 5.52 µM)
MIC (Enterococcus faecium; MMX 1238, VRE, Mt. Sinai): 4 µg/mL (≈ 5.52 µM)
MIC (Enterococcus faecium; MMX 1259, VSE, Mt. Sinai): >8 µg/mL
MIC (Enterococcus faecium; MMX 4024, VRE, CHP): >8 µg/mL
MIC (Enterococcus faecium; MMX 4048, VRE, UCLA): >8 µg/mL
MIC ([1]; MMX 762, MRSE, CHP): >8 µg/mL
MIC ([1]; MMX 826, MRSE, UCLA): >8 µg/mL
MIC ([1]; MMX 835, MSSE, UCLA): 8 µg/mL (≈ 11 µM)
MIC ([1]; MMX 3703, MSSE, CHP): 8 µg/mL (≈ 11 µM)
MIC ([1]; MMX 3752, MRSE, Mt. Sinai): >8 µg/mL
MIC ([1]; MMX 3763, MSSE, Mt. Sinai): 8 µg/mL (≈ 11 µM)
MIC (Streptococcus pyogenes; MMX 718, CHP): >32 µg/mL
MIC (Streptococcus pyogenes; MMX 2572, UCLA): >32 µg/mL
MIC (Streptococcus pyogenes; MMX 3928, Mt. Sinai): >32 µg/mL
MIC (Enterococcus faecalis; MMX 101, CLSI QC, ATCC 29212): 8 µg/mL (≈ 11 µM)
MIC (Enterococcus faecalis; MMX 742, VSE, CHP): >8 µg/mL
MIC (Enterococcus faecalis; MMX 3199, VSE, UCLA): >8 µg/mL
MIC (Enterococcus faecalis; MMX 3821, VRE, Mt. Sinai): 8 µg/mL (≈ 11 µM)
MIC (Enterococcus faecalis; MMX 3896, VSE, Mt. Sinai): >8 µg/mL
MIC (Enterococcus faecalis; MMX 4131, VRE, CHP): 4 µg/mL (≈ 5.52 µM)
MIC (Enterococcus faecalis; MMX 4160, VRE, UCLA): 8 µg/mL (≈ 11 µM)
MIC (Staphylococcus aureus; MMX 100, CLSI QC, ATCC 29213): >8 µg/mL
MIC (Staphylococcus aureus; MMX 753, MSSA, CHP): >8 µg/mL
MIC (Staphylococcus aureus; MMX 758, MRSA, CHP): >8 µg/mL
MIC (Staphylococcus aureus; MMX 2055, MRSA, UCLA): >8 µg/mL
MIC (Staphylococcus aureus; MMX 2063, MSSA, UCLA): >8 µg/mL
MIC (Staphylococcus aureus; MMX 3856, MSSA, Mt. Sinai): >8 µg/mL
MIC (Staphylococcus aureus; MMX 3894, MRSA, Mt. Sinai): >8 µg/mL
in vitro activity (rank among the four compounds) [2]: most potent in vitro activity
activity against the streptococci (streptococci): Neither compound was active
activity against enterococci (enterococci): inhibited multiple strains

CN[C@H](CC(C)C)C(=O)N[C@H]1C(=O)N[C@@H](CC(N)=O)C(=O)N[C@H]2C(=O)N[C@H]3C(=O)N[C@H](C(=O)N[C@H](C(=O)O)c4cc(O)cc(O)c4-c4cc3ccc4O)[C@H](O)c3ccc(c(Cl)c3)Oc3cc2cc(c3O[C@@H]2O[C@H](CO)[C@@H](O)[C@H](O)[C@H]2O[C@H]2C[C@](C)(N)[C@H](O)[C@H](C)O2)Oc2ccc(cc2Cl)[C@H]1O [Vancomycin, reference compound]
success rate (MRSA): 35-57%
reduction compared to vehicle control [3]: 72%
number of MRSA isolated from muscle tissue ([3]; intraperitoneal, 48 hours, neutropenic mice): 2.2×10^7 g of tissue

— US8633166B2, “Methicillin-resistant Staphylococcus aureus active metabolites” (priority 2009, dated 2014)
